Laboratory results from ChEMBL document CHEMBL3994677, “Discovery of GSK2193874: An Orally Active, Potent, and Selective Blocker of Transient Receptor Potential Vanilloid 4” (ACS Med Chem Lett, 2017).
Values belong to the compound of their own block, whether it stands above or below them. Active and inactive are the calls of the source. No cut-off for these calls is given here.

Columns and labels:
[1] = molecular target: Transient receptor potential cation channel subfamily V member 4 (Homo sapiens, UniProt Q9HBA0); test: Antagonist activity at human TRPV4 expressed in HEK293 cells assessed as inhibition of GSK634775A-induced calcium influx preincubated for 10 mins followed by GSK634775A addition by […] dye based FLIPR assay; type: cell-based
[2] = molecular target: Transient receptor potential cation channel subfamily V member 4 (Rattus norvegicus, UniProt Q9ERZ8); test: Antagonist activity at rat TRPV4 expressed in HEK293 cells assessed as inhibition of GSK634775A-induced calcium influx preincubated for 10 mins followed by GSK634775A addition by […] dye based FLIPR assay; type: cell-based
[3] = molecular target: T1, Voltage-dependent L-type calcium channel subunit alpha-1C (Cavia porcellus, UniProt O35505); test: Inhibition of Cav1.2 in guinea pig ventricular myocytes assessed as decrease in current amplitude at 0.1 Hz by patch clamp method; type: cell-based
[4] = molecular target: T1, Voltage-dependent L-type calcium channel subunit alpha-1C; test: Inhibition of Cav1.2 in guinea pig ventricular myocytes assessed as decrease in current amplitude at 2 Hz by patch clamp method; type: cell-based
[5] = molecular target: Nuclear receptor subfamily 1 group I member 2 (Homo sapiens, UniProt O75469); test: Activation of PXR (unknown origin); type: ADME
Substance-K receptor = Substance-K receptor (Homo sapiens, UniProt P21452); test: Inhibition of NK2 receptor (unknown origin) by FLIPR assay
Neuromedin-K receptor = Neuromedin-K receptor (Homo sapiens, UniProt P29371); test: Inhibition of NK3 receptor (unknown origin) by FLIPR assay
[6] = Clearance in Sprague-Dawley rat; type: ADME; details: in vivo
[7] = Oral bioavailability in Sprague-Dawley rat; type: ADME, organism-based; details: in vivo
Rattus norvegicus = test: Dose normalized AUC in po dosed Sprague-Dawley rat; type: ADME, organism-based; details: in vivo
[8] = molecular target: Voltage-gated inwardly rectifying potassium channel KCNH2 (Homo sapiens, UniProt Q12809); test: Inhibition of human ERG by patchXpress electrophysiology assay
[9] = molecular target: Voltage-dependent L-type calcium channel subunit alpha-1C (Homo sapiens, UniProt Q13936); test: Inhibition of Cav1.2 (unknown origin) by patchXpress electrophysiology assay
[10] = molecular target: Sodium channel protein type 5 subunit alpha (Homo sapiens, UniProt Q14524); test: Inhibition of Nav1.5 (unknown origin) by ionworks quattro electrophysiology assay
Canis familiaris [11] = test: Toxicity in Beagle dog assessed as QTc prolongation at 1 to 3 mg/kg, iv administered as infusion; type: organism-based, Canis lupus familiaris; details: in vivo
Canis familiaris [12] = test: Toxicity in Beagle dog assessed as reduction in BP at 3 mg/kg, iv administered as infusion; type: organism-based, Canis lupus familiaris; details: in vivo
Canis familiaris [13] = test: Toxicity in Beagle dog assessed as reduction in heart rate at 3 mg/kg, iv administered as infusion; type: organism-based, Canis lupus familiaris; details: in vivo
Canis familiaris [14] = test: Toxicity in Beagle dog assessed as effect on cardiac output at 3 mg/kg, iv administered as infusion; type: organism-based, Canis lupus familiaris; details: in vivo
Canis familiaris [15] = test: Toxicity in Beagle dog assessed as effect on LV function at 3 mg/kg, iv administered as infusion; type: organism-based, Canis lupus familiaris; details: in vivo
[16] = Cmax in Beagle dog at 3 mg/kg, iv administered as infusion; type: ADME, organism-based, Canis lupus familiaris; design: dose 3 mg/kg, route intravenous; details: in vivo
Canis familiaris [17] = test: Toxicity in Beagle dog assessed as hemodynamic effect at 1 mg/kg, iv administered as infusion; type: organism-based, Canis lupus familiaris; details: in vivo
[18] = Cmax in Beagle dog at 1 mg/kg, iv administered as infusion; type: ADME, organism-based, Canis lupus familiaris; design: dose 1 mg/kg, route intravenous; details: in vivo
Plasma = test: Terminal plasma concentration in TRPV4 knockout Balb/c mouse at 30 mg/kg, iv administered as infusion; type: ADME, organism-based; details: in vivo, read-out: Cp(T)
Mus musculus [19] = test: Toxicity in TRPV4 knockout Balb/c mouse assessed as reduction in BP at 30 mg/kg, iv administered as infusion; type: organism-based; details: in vivo
Mus musculus [20] = test: Toxicity in TRPV4 knockout Balb/c mouse assessed as reduction in heart rate at 30 mg/kg, iv administered as infusion; type: organism-based; details: in vivo
[21] = Cardiotoxicity in rabbit ventricular wedge; type: toxicity, Oryctolagus cuniculus
[22] = molecular target: Voltage-dependent N-type calcium channel subunit alpha-1B (Homo sapiens) (UniProt Q00975); test: Inhibition of Cav2.2 (unknown origin)
[23] = molecular target: Voltage-dependent T-type calcium channel subunit alpha-1H (Homo sapiens) (UniProt O95180); test: Inhibition of Cav3.2 (unknown origin)
Aorta = test: Toxicity in mouse isolated aorta assessed as effect on contractility; type: tissue-based; details: in vivo
[24] = Toxicity in mouse isolated right atria assessed as effect on contractility; design: species or system Right cardiac atrium; details: in vivo
Canis familiaris [25] = test: Unbound plasma concentration in Beagle dog at 3 mg/kg, iv administered as infusion; details: in vivo
Canis familiaris [26] = test: Unbound plasma concentration in Beagle dog at 1 mg/kg, iv administered as infusion; details: in vivo

Sequence of Transient receptor potential cation channel subfamily V member 4 (Rattus norvegicus, UniProt Q9ERZ8) (Q9ERZ8 whole entry): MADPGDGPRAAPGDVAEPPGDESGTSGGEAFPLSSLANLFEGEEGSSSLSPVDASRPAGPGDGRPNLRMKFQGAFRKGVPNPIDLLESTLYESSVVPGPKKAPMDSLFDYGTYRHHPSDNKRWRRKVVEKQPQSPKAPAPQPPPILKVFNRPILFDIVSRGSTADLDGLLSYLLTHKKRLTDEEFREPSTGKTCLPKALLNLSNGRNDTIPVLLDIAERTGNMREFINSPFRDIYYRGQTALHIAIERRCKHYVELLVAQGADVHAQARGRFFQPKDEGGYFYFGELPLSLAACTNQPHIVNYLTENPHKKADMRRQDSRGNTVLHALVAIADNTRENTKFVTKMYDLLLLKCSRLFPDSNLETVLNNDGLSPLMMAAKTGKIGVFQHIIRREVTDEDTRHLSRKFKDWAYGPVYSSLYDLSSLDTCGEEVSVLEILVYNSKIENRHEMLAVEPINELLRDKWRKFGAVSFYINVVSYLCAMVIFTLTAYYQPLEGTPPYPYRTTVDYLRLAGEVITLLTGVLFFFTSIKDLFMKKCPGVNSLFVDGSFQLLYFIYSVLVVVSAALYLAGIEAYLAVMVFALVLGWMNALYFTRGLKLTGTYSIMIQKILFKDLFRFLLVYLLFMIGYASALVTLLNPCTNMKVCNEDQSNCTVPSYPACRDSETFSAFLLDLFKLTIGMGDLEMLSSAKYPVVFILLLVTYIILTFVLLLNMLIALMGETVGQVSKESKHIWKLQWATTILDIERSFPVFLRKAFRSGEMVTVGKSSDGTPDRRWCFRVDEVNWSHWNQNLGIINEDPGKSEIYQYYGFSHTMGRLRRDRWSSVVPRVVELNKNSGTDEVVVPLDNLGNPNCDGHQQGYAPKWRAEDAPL
T1 sequence (O35505 whole entry): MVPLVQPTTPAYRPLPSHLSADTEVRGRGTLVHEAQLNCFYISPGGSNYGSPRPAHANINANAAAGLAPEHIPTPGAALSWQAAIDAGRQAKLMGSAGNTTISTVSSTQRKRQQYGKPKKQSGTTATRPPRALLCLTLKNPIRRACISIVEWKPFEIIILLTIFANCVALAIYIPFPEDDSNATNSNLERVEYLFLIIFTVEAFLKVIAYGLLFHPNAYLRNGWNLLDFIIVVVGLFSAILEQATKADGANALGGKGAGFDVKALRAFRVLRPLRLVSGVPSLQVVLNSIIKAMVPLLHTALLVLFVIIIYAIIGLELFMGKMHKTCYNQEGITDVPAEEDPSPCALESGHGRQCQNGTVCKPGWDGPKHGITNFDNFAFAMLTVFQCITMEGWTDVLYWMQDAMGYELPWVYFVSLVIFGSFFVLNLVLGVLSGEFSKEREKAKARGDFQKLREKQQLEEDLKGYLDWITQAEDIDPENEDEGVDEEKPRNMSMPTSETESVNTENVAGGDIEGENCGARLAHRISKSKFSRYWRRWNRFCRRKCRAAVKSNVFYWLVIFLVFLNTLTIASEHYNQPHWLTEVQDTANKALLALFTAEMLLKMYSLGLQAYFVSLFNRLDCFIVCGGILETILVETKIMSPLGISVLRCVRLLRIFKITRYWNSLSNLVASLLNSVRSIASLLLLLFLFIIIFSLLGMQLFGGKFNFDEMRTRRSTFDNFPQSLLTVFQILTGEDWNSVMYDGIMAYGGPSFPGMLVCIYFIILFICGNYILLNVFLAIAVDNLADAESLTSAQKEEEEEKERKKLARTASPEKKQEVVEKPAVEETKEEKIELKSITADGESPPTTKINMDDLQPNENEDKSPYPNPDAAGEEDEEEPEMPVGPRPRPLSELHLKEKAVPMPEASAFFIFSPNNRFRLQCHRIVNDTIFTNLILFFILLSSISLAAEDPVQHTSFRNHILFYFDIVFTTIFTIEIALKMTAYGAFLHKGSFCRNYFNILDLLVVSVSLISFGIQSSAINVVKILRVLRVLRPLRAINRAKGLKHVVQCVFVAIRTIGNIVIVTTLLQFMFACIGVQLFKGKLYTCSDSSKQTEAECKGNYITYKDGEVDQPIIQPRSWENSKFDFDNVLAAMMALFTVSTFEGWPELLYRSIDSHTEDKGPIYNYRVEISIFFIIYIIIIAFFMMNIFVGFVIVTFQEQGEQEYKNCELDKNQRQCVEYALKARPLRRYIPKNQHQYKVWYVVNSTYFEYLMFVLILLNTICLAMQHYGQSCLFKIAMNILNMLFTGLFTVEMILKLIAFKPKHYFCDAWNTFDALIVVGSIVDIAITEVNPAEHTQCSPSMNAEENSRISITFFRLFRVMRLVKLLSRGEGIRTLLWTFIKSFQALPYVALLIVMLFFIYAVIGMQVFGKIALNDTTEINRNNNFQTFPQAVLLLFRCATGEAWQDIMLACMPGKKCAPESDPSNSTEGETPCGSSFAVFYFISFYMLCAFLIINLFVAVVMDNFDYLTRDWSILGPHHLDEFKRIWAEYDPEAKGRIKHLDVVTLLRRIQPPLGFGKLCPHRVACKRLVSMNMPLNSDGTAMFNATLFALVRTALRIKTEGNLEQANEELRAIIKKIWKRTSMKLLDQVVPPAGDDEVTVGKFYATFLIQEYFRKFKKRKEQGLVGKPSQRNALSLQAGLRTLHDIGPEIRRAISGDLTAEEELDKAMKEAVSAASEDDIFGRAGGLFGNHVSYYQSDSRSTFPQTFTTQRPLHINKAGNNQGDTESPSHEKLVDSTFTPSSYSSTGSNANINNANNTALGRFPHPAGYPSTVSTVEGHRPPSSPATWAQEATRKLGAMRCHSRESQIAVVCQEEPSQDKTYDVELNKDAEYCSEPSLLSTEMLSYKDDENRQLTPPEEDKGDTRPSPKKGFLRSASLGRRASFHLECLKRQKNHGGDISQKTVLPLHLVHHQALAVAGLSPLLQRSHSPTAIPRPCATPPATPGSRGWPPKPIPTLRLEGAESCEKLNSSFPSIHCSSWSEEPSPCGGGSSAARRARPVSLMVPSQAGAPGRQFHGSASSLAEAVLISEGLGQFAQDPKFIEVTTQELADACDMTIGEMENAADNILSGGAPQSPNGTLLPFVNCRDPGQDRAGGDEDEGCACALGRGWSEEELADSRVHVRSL
Sequence of Transient receptor potential cation channel subfamily V member 4 (Homo sapiens, UniProt Q9HBA0) (Q9HBA0 whole entry): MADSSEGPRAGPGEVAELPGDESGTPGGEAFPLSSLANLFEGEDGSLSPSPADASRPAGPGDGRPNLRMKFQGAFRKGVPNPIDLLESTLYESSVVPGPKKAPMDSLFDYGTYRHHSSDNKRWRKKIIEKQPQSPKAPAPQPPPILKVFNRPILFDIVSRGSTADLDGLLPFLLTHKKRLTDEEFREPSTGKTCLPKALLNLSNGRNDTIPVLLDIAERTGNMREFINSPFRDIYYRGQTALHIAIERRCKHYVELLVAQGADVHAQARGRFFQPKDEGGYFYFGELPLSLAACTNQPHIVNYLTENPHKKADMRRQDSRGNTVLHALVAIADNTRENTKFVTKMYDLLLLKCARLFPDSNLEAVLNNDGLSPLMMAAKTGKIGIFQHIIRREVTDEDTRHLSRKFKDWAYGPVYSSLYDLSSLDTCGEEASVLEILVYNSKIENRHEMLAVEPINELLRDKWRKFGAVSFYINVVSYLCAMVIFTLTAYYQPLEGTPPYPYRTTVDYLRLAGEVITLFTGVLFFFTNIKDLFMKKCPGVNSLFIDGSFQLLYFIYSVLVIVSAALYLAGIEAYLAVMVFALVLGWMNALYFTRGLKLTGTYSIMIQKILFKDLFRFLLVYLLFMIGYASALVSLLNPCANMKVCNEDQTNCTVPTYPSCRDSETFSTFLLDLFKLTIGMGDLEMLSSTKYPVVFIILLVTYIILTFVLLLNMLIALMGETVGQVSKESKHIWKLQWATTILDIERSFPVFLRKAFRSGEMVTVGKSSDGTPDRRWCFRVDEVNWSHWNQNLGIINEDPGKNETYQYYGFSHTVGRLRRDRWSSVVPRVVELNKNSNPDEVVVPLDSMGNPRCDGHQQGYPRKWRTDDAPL
Sequence of Substance-K receptor (P21452 whole entry): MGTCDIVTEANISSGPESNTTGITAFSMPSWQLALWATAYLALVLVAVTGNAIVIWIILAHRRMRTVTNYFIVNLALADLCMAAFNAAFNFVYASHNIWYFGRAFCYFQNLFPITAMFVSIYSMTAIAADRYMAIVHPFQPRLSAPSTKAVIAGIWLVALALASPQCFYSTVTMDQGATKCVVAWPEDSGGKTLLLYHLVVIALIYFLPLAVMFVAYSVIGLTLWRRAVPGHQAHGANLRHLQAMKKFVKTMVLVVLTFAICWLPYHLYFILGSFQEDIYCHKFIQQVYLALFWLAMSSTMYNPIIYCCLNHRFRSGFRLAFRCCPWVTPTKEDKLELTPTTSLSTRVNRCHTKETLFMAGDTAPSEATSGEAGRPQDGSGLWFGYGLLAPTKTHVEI
Sequence of Neuromedin-K receptor (P29371 whole entry): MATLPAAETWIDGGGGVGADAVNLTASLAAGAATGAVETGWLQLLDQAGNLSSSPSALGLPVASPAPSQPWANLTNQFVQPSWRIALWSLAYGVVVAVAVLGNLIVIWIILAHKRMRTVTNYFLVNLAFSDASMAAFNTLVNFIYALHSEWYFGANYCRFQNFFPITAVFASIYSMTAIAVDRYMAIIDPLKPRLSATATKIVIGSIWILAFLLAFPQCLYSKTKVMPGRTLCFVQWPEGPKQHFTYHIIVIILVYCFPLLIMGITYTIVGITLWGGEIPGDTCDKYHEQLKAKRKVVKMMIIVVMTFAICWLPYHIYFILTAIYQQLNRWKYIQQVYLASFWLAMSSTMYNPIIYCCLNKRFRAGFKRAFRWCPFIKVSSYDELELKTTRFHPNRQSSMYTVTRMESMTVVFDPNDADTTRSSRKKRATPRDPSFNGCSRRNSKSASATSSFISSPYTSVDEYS

Compound: CCOc1ccc2c(C(=O)N[C@H](c3ccccc3)C(F)(F)F)c(CN3CCC(N4CCCCC4)CC3)c(-c3cccc(C(F)(F)F)c3)nc2c1
IC50 [1]: 10 nM
IC50 [2]: 3.2 nM
IC30 [3]: 10000 nM
IC30 [4]: 12000 nM
EC50 [5]: 1300 nM

Compound: C[C@H](NC(=O)c1c(CN2CCC(N3CCCCC3)CC2)c(-c2ccccc2)nc2ccccc12)c1ccccc1
IC50 [1]: 2000 nM
IC50 [2]: 320 nM
IC50 (Substance-K receptor): 100 nM
IC50 (Neuromedin-K receptor): 8 nM
clearance [6]: 52 mL/min/kg

Compound: Cc1ccc(-c2nc3ccccc3c(C(=O)N[C@@H](C)c3ccccc3)c2CN2CCC(N3CCCCC3)CC2)cc1
IC50 [1]: 1580 nM
IC50 [2]: 100 nM

Compound: COc1ccc2c(C(=O)NC3(c4ccccc4)CC3)c(CN3CCC(N4CCCCC4)CC3)c(-c3cccc(C(F)(F)F)c3)nc2c1
IC50 [1]: 250 nM
IC50 [2]: 2.5 nM

Compound: COc1ccc(-c2nc3ccccc3c(C(=O)N[C@@H](C)c3ccccc3)c2CN2CCC(N3CCCCC3)CC2)cc1
IC50 [1]: 5010 nM
IC50 [2]: 320 nM

Compound: C[C@H](NC(=O)c1c(CN2CCC(N3CCCCC3)CC2)c(-c2ccc(Cl)cc2)nc2ccccc12)c1ccccc1
IC50 [1]: 320 nM
IC50 [2]: 16 nM

Compound: CCOc1ccc2c(C(=O)NC3(c4ccccc4)CC3)c(CN3CCC(N4CCCCC4)CC3)c(-c3cccc(C(F)(F)F)c3)nc2c1
IC50 [1]: 80 nM
IC50 [2]: 1.6 nM

Compound: COc1ccc2c(C(=O)N[C@H](c3ccccc3)C(F)(F)F)c(CN3CCC(N4CCCCC4)CC3)c(-c3cccc(C(F)(F)F)c3)nc2c1
IC50 [1]: 50 nM
IC50 [2]: 4 nM

Compound: O=C(NC1(c2ccccc2)CC1)c1c(CN2CCC(N3CCCCC3)CC2)c(-c2cccc(C(F)(F)F)c2)nc2ccccc12
IC50 [1]: 50 nM
IC50 [2]: 2.5 nM

Compound: O=C(N[C@H](c1ccccc1)C(F)(F)F)c1c(CN2CCC(N3CCCCC3)CC2)c(-c2cccc(C(F)(F)F)c2)nc2ccc(Br)cc12
IC50 [1]: 60 nM
IC50 [2]: 2.5 nM

Compound: O=C(N[C@H](c1ccccc1)C(F)(F)F)c1c(CN2CCC(N3CCCCC3)CC2)c(-c2cccc(C(F)(F)F)c2)nc2cc(Br)ccc12
IC50 [1]: 60 nM
IC50 [2]: 3.2 nM

Compound: C[C@@H](NC(=O)c1c(CN2CCC(N3CCCCC3)CC2)c(-c2ccccc2)nc2ccccc12)c1ccccc1
IC50 [1]: 2000 nM
IC50 [2]: 630 nM

Now from value to compound, other results behind:

IC50 [1]: 3160 nM
IC50 [2]: 790 nM
Compound: C[C@H](NC(=O)c1c(CN2CCC(N3CCNCC3)CC2)c(-c2cccc(C(F)(F)F)c2)nc2ccccc12)c1ccccc1

IC50 [1]: 2000 nM
IC50 [2]: 400 nM
Compound: C[C@@H](NC(=O)c1c(CN2CCC(N3CCCCC3)CC2)c(-c2cccc(C(F)(F)F)c2)nc2ccccc12)c1ccccc1

IC50 [1]: 2510 nM
IC50 [2]: 320 nM
Compound: C[C@H](NC(=O)c1c(CN2CCC(N(C)C)CC2)c(-c2cccc(C(F)(F)F)c2)nc2ccccc12)c1ccccc1

IC50 [1]: 80 nM
IC50 [2]: 2.5 nM
IC50 (Substance-K receptor): 1300 nM
IC50 (Neuromedin-K receptor): 2500 nM
clearance [6]: 25 mL/min/kg
bioavailability [7]: 100%
AUC/dose (Rattus norvegicus): 0.8 µg·h/mL/mg/kg
Cmax [16]: 20 µM
Cmax [18]: 7 µM
concentration (Plasma): 10 to 11 µM
inhibition [22]: inactive
inhibition [23]: inactive
unbound plasma concentration (Canis familiaris [25]): 0.94 µM
unbound plasma concentration (Canis familiaris [26]): 0.3 µM
Compound: C[C@H](NC(=O)c1c(CN2CCC(N3CCCCC3)CC2)c(-c2cccc(C(F)(F)F)c2)nc2ccccc12)c1ccccc1
IC50 [8]: 1200 nM
IC50 [9]: 4500 nM
IC50 [10]: 40000 nM
Activity (Canis familiaris [11]): Toxic
Activity (Canis familiaris [12]): Toxic
Activity (Canis familiaris [13]): Toxic
Activity (Canis familiaris [14]): Toxic
Activity (Canis familiaris [15]): Toxic
Activity (Canis familiaris [17]): Non-Toxic
Activity (Mus musculus [19]): Toxic
Activity (Mus musculus [20]): Toxic
IC30 [3]: 1700 nM
IC30 [4]: 120 nM
Activity [21]: Non-Toxic
Activity (Aorta): Non-Toxic
Activity [24]: Non-Toxic

IC50 [1]: > 25000 nM
IC50 [2]: > 25000 nM
Compound: C[C@H](NC(=O)c1c(CN2CCCCC2)c(-c2cccc(C(F)(F)F)c2)nc2ccccc12)c1ccccc1

IC50 [1]: 500 nM
IC50 [2]: 13 nM
Compound: Cc1cccc(-c2nc3ccccc3c(C(=O)N[C@@H](C)c3ccccc3)c2CN2CCC(N3CCCCC3)CC2)c1

IC50 [1]: 160 nM
IC50 [2]: 6 nM
Compound: CC[C@H](NC(=O)c1c(CN2CCC(N3CCCCC3)CC2)c(-c2cccc(C(F)(F)F)c2)nc2ccccc12)c1ccccc1

IC50 [1]: 1000 nM
IC50 [2]: 40 nM
Compound: CC(C)(NC(=O)c1c(CN2CCC(N3CCCCC3)CC2)c(-c2cccc(C(F)(F)F)c2)nc2ccccc12)c1ccccc1

IC50 [1]: 500 nM
IC50 [2]: 50 nM
Compound: O=C(NCc1ccccc1)c1c(CN2CCC(N3CCCCC3)CC2)c(-c2cccc(C(F)(F)F)c2)nc2ccccc12

IC50 [1]: 40 nM
IC50 [2]: 2.5 nM
Compound: O=C(N[C@H](c1ccccc1)C(F)(F)F)c1c(CN2CCC(N3CCCCC3)CC2)c(-c2cccc(C(F)(F)F)c2)nc2ccccc12

IC50 [1]: 130 nM
IC50 [2]: 25 nM
Compound: CC(C)[C@H](NC(=O)c1c(CN2CCC(N3CCCCC3)CC2)c(-c2cccc(C(F)(F)F)c2)nc2ccccc12)c1ccccc1

IC50 [1]: 100 nM
IC50 [2]: 8 nM
Compound: O=C(N[C@@H](c1ccccc1)C(F)(F)F)c1c(CN2CCC(N3CCCCC3)CC2)c(-c2cccc(C(F)(F)F)c2)nc2ccccc12

IC50 [1]: 400 nM
IC50 [2]: 16 nM
Compound: C[C@H](NC(=O)c1c(CN2CCC(N3CCCCC3)CC2)c(-c2ccc(C(F)(F)F)cc2)nc2ccccc12)c1ccccc1

IC50 [1]: 200 nM
IC50 [2]: 8 nM
Compound: C[C@H](NC(=O)c1c(CN2CCC(N3CCCCC3)CC2)c(-c2cccc(Cl)c2)nc2ccccc12)c1ccccc1

IC50 [1]: 50 nM
IC50 [2]: 4 nM
Compound: C[C@H](NC(=O)c1c(CN2CCC(N3CCOCC3)CC2)c(-c2cccc(C(F)(F)F)c2)nc2ccccc12)c1ccccc1

IC50 [1]: 3980 nM
IC50 [2]: 630 nM
Compound: COc1cccc(-c2nc3ccccc3c(C(=O)N[C@@H](C)c3ccccc3)c2CN2CCC(N3CCCCC3)CC2)c1

IC50 [1]: > 25000 nM
IC50 [2]: > 25000 nM
Compound: C[C@H](NC(=O)c1c(CN2CCC(C3CCCCC3)CC2)c(-c2cccc(C(F)(F)F)c2)nc2ccccc12)c1ccccc1
